According to patent US7655756B2 (Johnson & Johnson Pharmaceutical Research & Development, LLC, priority 2005, dated 2010):
pKd: −log10 of the molar value. Like-named read-outs stand apart in the source and are kept apart here.

Tests used:
ERRα = target: T1, ERRα (Homo sapiens, UniProt P11474); assay: ThermoFluor thermal shift assay, ERRα; format: binding; conditions: for ΔTm, thermal stabilization of ERRα / ΔTm at 100 µM: 100 μM test compound, 0.1 mg/mL protein, 25 mM HEPES pH 8.0, 25 μM ANS, 2% DMSO, Tm free protein 54.4 °C; for ΔTm at 100 µM: read-out: ΔTm, thermal stabilization of ERRα
T1 sequence (P11474 193-421 limits assumed): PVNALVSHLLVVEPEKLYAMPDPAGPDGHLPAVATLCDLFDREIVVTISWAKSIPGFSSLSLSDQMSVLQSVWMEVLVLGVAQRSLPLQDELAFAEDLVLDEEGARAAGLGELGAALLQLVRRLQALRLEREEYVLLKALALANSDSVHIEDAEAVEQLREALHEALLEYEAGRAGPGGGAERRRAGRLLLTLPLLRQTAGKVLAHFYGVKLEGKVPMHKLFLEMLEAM

ERRβ = target: T2, ERRβ (Homo sapiens, UniProt O95718); assay: ThermoFluor thermal shift assay, ERRβ; format: binding; conditions: for ΔTm, thermal stabilization of ERRβ / ΔTm at 100 µM: 100 μM test compound, 0.1 mg/mL protein, 25 mM HEPES pH 8.0, Tm free protein 47.5 °C; for ΔTm at 100 µM: read-out: ΔTm, thermal stabilization of ERRβ; for pKd: read-out: Estimated dissociation constant, ERRβ
T2 sequence (O95718 208-432 limits assumed): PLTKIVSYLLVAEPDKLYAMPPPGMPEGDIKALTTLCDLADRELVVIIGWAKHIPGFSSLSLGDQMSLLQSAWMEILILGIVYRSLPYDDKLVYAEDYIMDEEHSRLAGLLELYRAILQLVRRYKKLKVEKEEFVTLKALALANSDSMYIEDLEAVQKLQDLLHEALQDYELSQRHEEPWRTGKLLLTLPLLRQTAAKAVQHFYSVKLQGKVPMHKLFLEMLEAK

[1] = target: T3, ligand binding domain of ERRγ (Homo sapiens, UniProt P62508); assay: ThermoFluor thermal shift assay, ERRγ ligand binding domain; conditions: for ΔTm, thermal stabilization of ERRγ / ΔTm at 100 µM: 100 μM test compound, 0.1 mg/mL protein, 25 mM HEPES pH 8.0, Tm free protein 49.6 °C; for ΔTm at 100 µM: read-out: ΔTm, thermal stabilization of ERRγ; for pKd: read-out: Estimated dissociation constant, ERRγ
T3 construct: 6His; made in house; host or cells: E. coli BL21(DE3)
T3 sequence (P62508 229-458): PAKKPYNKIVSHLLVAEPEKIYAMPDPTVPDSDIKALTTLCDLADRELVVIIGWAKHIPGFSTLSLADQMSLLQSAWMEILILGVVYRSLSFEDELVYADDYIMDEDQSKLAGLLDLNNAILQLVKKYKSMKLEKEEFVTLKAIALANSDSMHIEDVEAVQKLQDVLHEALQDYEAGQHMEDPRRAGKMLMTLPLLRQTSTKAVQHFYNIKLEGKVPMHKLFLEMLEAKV
Procedure: The vector was in E. coli BL21(DE3) and cultured in Minimal media (M9) at 37° C. to an OD595 0.6-0.8, followed by induction at 15° C. with 0.4 mM IPTG for 20 hours. The next day, the culture was harvested and lysed in buffer A (Buffer A: 20 mM Tris-HCl, pH 7.5, 0.4 M NaCl and 5 mM Imidazole) using an Emulsiflex-C5 french press (Avestin). Lysates were spun at 40,000×g for 45 minutes to remove insoluble material. The clarified lysate was applied on a Ni-NTA column and eluted with a linear gradient of imidazole. The protein was further purified by applying the eluent on a Superdex 200 HR 10/30 column (Amersham Pharmacia Biotech) equilibrated with Buffer B (Buffer B: 20 mM Tris-HCl pH 7.5, 0.2M NaCl, 1 mM EDTA and 1 mM DTT). […] Fractions were pulled and concentrated to 4 mg/ml and frozen in liquid nitrogen and stored at −80° C.
The ligand binding domain of ERRγ was screened against a library of known estrogen activators and a generic drug library using ThermoFluor®. ThermoFluor® is a miniaturized thermal shift assay, that has been developed for HTS applications; as a secondary assay for confirmation and characterization of hits; and as a functional assay to characterize orphan proteins. ThermoFluor® exploits the well-described phenomenon of ligand induced stabilization of macromolecules. Ligand binding energy adds directly to the ground state energy of a macromolecule and results in increased thermal stability. The degree of stabilization is proportional to the binding affinity of the ligand for the macromolecule.
Assay plates were prepared by dispensing 2 μL of a protein-dye solution and 2 μL of the test compound in a 384-well plate. […] Finally 1 μL of mineral oil was dispensed on top to prevent evaporation during the high throughput screen (HTS). ThermoFluor® is an HTS assay that measures protein unfolding based on fluorescence detection of the denatured form of the protein. The reporter for the protein unfolding event is the environmentally sensitive dye ANS that is incorporated in the screening buffer. During a typical experiment the 384-well plate is heated at a ramping rate of 1° C./min and the thermal unfolding of the protein is monitored at 1° C. intervals by measuring fluorescence changes detected through a CCD camera. Captured images are integrated and a melting curve is generated that relates fluorescence to fraction of unfolded protein as a function of temperature. […] Hits were identified from the screen by measuring an increase in the melting temperature of the protein.
In order to estimate binding affinities, it was taken into account that the oligomeric state of ERRγ which is a dimer (N2), and that of a single ligand (Lf) can interact per monomer subunit with equal affinity. The melting curve for such a system is described by the following three equilibria:
To compare dissociation constants at a common reference temperature, Tref, the following equation was used: […]
In the thermodynamic treatment of the data the following assumptions were made: i) the small ligand interacts only with the folded state of the protein, ii) the reactions are reversible; iii) the unfolding protein reaction is a two-state process and iv) ideal dilute solutions are being used (specific activity for protein and ligands is equal to 1).

ERα = target: T4, ERα (Homo sapiens, UniProt P03372); assay: ThermoFluor thermal shift assay, ERα; format: binding
T4 sequence (P03372 1-595): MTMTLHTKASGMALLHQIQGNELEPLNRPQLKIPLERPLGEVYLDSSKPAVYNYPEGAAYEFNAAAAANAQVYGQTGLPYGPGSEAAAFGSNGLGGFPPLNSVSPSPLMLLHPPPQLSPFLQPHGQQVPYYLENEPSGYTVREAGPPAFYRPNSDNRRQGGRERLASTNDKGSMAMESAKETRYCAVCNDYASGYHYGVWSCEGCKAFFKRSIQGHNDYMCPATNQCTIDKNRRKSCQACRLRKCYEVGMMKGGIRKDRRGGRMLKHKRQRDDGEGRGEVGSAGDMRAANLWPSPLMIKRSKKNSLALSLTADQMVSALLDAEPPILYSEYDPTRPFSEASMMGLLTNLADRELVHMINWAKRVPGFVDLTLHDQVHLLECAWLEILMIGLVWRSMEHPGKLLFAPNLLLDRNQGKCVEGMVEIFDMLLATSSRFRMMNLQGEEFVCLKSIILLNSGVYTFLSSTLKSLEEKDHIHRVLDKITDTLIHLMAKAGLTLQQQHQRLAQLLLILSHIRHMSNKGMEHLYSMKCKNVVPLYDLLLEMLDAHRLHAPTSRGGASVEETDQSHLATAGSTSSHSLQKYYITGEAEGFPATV

ERβ = ERβ (Homo sapiens, UniProt Q92731); assay: ThermoFluor thermal shift assay, ERβ; format: binding; conditions: for pKd: calculated at reference temperature 25 °C from ΔTm of Table II, ΔHu 122 kcal/mol, read-out: Estimated dissociation constant, ERγ
[2] = 100 μM test compound, 0.1 mg/mL protein, 25 mM HEPES pH 8.0, Tm free protein 39.1 °C, read-out: ΔTm, thermal stabilization of ERα
[3] = 100 μM test compound, 0.1 mg/mL protein, 25 mM HEPES pH 8.0, Tm free protein 39.1 °C
[4] = calculated at reference temperature 25 °C from ΔTm of Table II, ΔHu 112 kcal/mol, read-out: Estimated dissociation constant, ERα
[5] = 100 μM test compound, 0.1 mg/mL protein, 25 mM HEPES pH 8.0, Tm free protein 41.1 °C
[6] = 100 μM test compound, 0.1 mg/mL protein, 25 mM HEPES pH 8.0, Tm free protein 41.1 °C, read-out: ΔTm, thermal stabilization of ERβ

Chain of ERβ (Q92731 whole entry, species assumed): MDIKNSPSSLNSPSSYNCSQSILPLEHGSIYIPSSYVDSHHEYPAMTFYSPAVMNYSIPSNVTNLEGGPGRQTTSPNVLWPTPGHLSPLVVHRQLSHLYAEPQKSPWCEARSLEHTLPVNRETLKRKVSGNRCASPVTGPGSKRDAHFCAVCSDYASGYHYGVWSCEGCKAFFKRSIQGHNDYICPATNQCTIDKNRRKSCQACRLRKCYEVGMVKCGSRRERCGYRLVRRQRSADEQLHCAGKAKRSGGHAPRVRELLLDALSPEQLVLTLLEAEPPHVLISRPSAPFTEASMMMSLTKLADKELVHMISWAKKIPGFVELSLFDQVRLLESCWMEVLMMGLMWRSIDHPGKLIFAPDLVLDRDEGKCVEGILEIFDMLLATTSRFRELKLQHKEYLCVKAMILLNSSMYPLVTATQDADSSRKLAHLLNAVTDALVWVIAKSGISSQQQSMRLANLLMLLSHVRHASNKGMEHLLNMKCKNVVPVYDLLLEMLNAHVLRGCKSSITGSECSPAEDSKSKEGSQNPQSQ

Compound	ΔTm, thermal stabilization of ERRα (ERRα)	ΔTm, thermal stabilization of ERRβ (ERRβ)	ΔTm, thermal stabilization of ERRγ [1]	ΔTm at 100 µM (ERRα)	ΔTm at 100 µM (ERRβ)	ΔTm at 100 µM [1]	pKd (ERβ)	ΔTm at 100 µM (ERβ; [6])	also measured
N#CC(Cc1ccc(O)cc1)c1ccc(O)cc1 (stereo not drawn) [DPN]	−0.2 °C	0.2 °C	0.3 °C	–	–	–	–	–	–
O=c1c(-c2ccc(O)cc2)coc2cc(O)ccc12 [Daidzein]	–	–	–	0 °C	0.3 °C	-0.1 °C	–	–	Interaction with / stabilization of ERRα, in words (ERRα; ThermoFluor): did not interact; ΔTm at 100 µM (ERα; [2]): 4.1 °C; Interaction with / stabilization of ERRβ, in words (ERRβ; ThermoFluor): did not interact; ΔTm at 100 µM (ERβ; pH 8, read-out: ΔTm, thermal stabilization of ERβ): 8.9 °C; Interaction with / stabilization of ERRγ, in words ([1]; ThermoFluor): did not interact
C[C@]12CC[C@@H]3c4ccc(O)cc4CC[C@H]3[C@@H]1CC[C@H]2O [17-α-estradiol]	–	0.0 °C	1.3 °C	–	–	–	–	–	–
CCCc1c(-c2ccc(O)cc2)nn(-c2ccc(O)cc2)c1-c1ccc(O)cc1 [PPT]	−2.3 °C	−3.5 °C	−1.8 °C	–	–	–	7.23	–	ΔTm, thermal stabilization of ERα (ERα; [3]): 11.7 °C; pKd (ERα; [4]): 7.41; ΔTm, thermal stabilization of ERβ (ERβ; [5]): 9.5 °C
CCN(CC)CCOc1ccc(C(=C(Cl)c2ccccc2)c2ccccc2)cc1 [clomiphene]	–	–	–	–	–	–	7.28	9.7 °C	–
Oc1ccc(/C=C/c2cc(O)cc(O)c2)cc1 [resvesterol]	0.0 °C	0.2 °C	0.4 °C	–	–	–	–	–	–
COc1cc2c(cc1O)CC[C@@H]1[C@@H]2CC[C@]2(C)[C@@H](O)CC[C@@H]12 [2-methoxy-estradiol]	0.1 °C	−0.1 °C	0.0 °C	–	–	–	5.64	–	ΔTm, thermal stabilization of ERα (ERα; [3]): 3.5 °C; pKd (ERα; [4]): 5.58; ΔTm, thermal stabilization of ERβ (ERβ; [5]): 2.9 °C
C[C@]12CC[C@H]3[C@@H](CCC4=C[C@H](O)CC[C@@H]43)[C@@H]1CC[C@@H]2O [4-estrene-3-α-17-β-diol]	–	–	–	0 °C	-0.1 °C	-0.1 °C	6.80	7.7 °C	pKd (ERα): 5.90; ΔTm at 100 µM (ERα; pH 8, read-out: ΔTm, thermal stabilization of ERα): 4.9 °C
C[C@]12CC[C@@H]3c4ccc(O)cc4C[C@@H](CCCCCCCCC[S+]([O-])CCCC(F)(F)C(F)(F)F)[C@H]3[C@@H]1CC[C@@H]2O (stereo partly drawn) [ICI-182780]	–	–	–	0 °C	0 °C	0 °C	–	16.7 °C	ΔTm at 100 µM (ERα; [2]): 13.9 °C
O=C(c1ccc(OCCN2CCCCC2)cc1)c1c(-c2ccc(O)cc2)sc2cc(O)ccc12 [raloxifene]	–	–	–	–	–	–	–	11.9 °C	–
CCc1cc(O)ccc1Cl [4chloro-3ethyl-phenol]	–	–	–	0.2 °C	0.4 °C	4.1 °C	–	–	pKd (ERRβ): 4.74; pKd [1]: 6.14
C[C@]12CC[C@@H]3c4ccc(O)cc4CC[C@H]3[C@@H]1CC[C@@H]2O [17-β-estradiol]	–	−0.1 °C	0.6 °C	–	–	–	–	–	–
4-bromocresol	0.1 °C	0.5 °C	4.3 °C	–	–	–	–	–	pKd (ERRβ; calculated at reference temperature 25 °C from ΔTm of Table II, ΔHu 155 kcal/mol): 4.76; pKd ([1]; calculated at reference temperature 25 °C from ΔTm of Table II, ΔHu 165 kcal/mol): 6.20
